From US3975421A, “15-Substituted 11α-cyano-prostaglandins and related compounds” (American Home Products Corporation, priority 1974, dated 1976)

Tested on: adjuvant-induced arthritis in rats
Experiment: adjuvant-induced arthritis in rats, per cent inhibition of paw swelling
Format: in vivo, rat
Conditions: 0.5 mg/kg s.c. daily for sixteen days, male rats
From the text: In using the compounds of the invention to produce antiinflammatory effects in warm-blooded animals, they may be administered subcutaneously. The particular dosage to obtain the antiinflammatory effect will vary with the particular compound employed and the degree of antiinflammatory response desired. The antiinflammatory response produced upon subcutaneous administration can be observed by the method described by Newbould, B. B. in Brit. J. Pharm. Chemoth., 21, 127 (1963) and Rosenthale, M. E., and Nagra, C. L. in Proc. Soc. Exp. Biol. and Med., 125, 149 (1967). In this procedure, adjuvant-induced arthritis is induced in rats by injection of dead mycobacteria into the hind footpad. The test compound is administered subcutaneously daily for sixteen consecutive days beginning with the day of injection. The injected foot swells rapidly during the first 4 to 6 days. Thereafter, the swelling subsides until the 8th day, and then it resumes. About 4 to 10 days after injection, the other hind paw (un-injected) becomes swollen and other inflammatory nodules may be found in the ear and tail. The swelling of the injected paw at day 4 is taken as an indication of an acute inflammatory response. The swelling of the same paw at day 16 is taken as a delayed inflammatory response. The swelling of the other hind paw at day 16 is taken as a delayed hypersensitivity reaction. Active antiinflammatory compounds reduce the swelling in either the acute and/or the delayed phases. […] The percent protection against swelling, as compared to non-treated controls, is calculated and is used as a measure of antiinflammatory activity.
Male rats are randomly dispersed into groups. […] On day 4, the volume of the injected (right) foot is measured by means of a mercury plethysmograph. On day 16, the volumes of both the injected, right foot and the left hind foot are measured. The ability of the test compound to protect against acute and delayed swelling is measured by calculating the per cent decrease in volume of the test animals as compared to controls. […]

## CCCCCC(C)(O)/C=C/[C@H]1[C@H](C#N)CC(O)[C@@H]1CCCCCCC(=O)O (stereo partly drawn) [3α-cyano-5(RS)-hydroxy-2β-[(3RS)-3-hydroxy-3-methyl-trans-1-octenyl]-1α-cyclopentaneheptanoic acid]
Injected right paw, day 4 (acute)
  % Inhibition of Swelling, Day 4, Rt. Paw: 25%
Injected right paw, day 16 (delayed)
  % Inhibition of Swelling, Day 16, Rt. Paw: 31%
un-injected left paw, day 16 (delayed hypersensitivity)
  % Inhibition of Swelling, Day 16, Left Paw: 35%
